The source made the active and inactive calls. No cut-off for these calls is given here.
Assays:
[1] = target: High affinity cAMP-specific and IBMX-insensitive 3',5'-cyclic phosphodiesterase 8A (Homo sapiens) (UniProt O60658); test: Inhibition of recombinant N-terminal GST-tagged full length human PDE8A1 expressed in Sf9 cells using FAM-cAMP as substrate at 10 uM incubated for 60 mins by fluorescence plate reader analysis
Rattus norvegicus [2] = test: Antiarthritic activity in complete Freund's adjuvant-induced Wistar rat arthritis model assessed as reduction in pannus formation at 30 mg/kg, ip administered from 11th day to 20th day by H&E staining based microscopic analysis; assay type: functional, organism-based
Danio rerio = test: Anti-sclerotic activity in MOG/CFA-induced zebra fish EAE model assessed as prevention of disease progression at 3 to 30 mg/kg, ip measured for 7 days; assay type: functional, organism-based
RAW264.7 = test: Antiinflammatory activity in mouse RAW264.7 cells assessed as inhibition of LPS-induced iNOS expression preincubated for 30 mins followed by LPS stimulation and incubated for 10 hrs by immunoblotting analysis; assay type: functional, cell-based
[3] = Half life in rat liver microsomes at 5 uM by LC-MS/MS analysis; assay type: ADME, Microsome
[4] = Toxicity in zebrafish embryo assessed as effect in lower jaw formation at 1 to 100 uM; parameters: species or system Danio rerio; details: in vivo
[5] = target: 3',5'-cyclic-AMP phosphodiesterase 4A (Homo sapiens) (UniProt P27815); test: Inhibition of recombinant N-terminal GST tagged human PDE4A4B (2-end aa) expressed in Sf9 cells using FAM-cAMP as substrate at 10 uM incubated for 60 mins by fluorescence plate reader analysis
[6] = Hepatotoxicity in zebrafish embryos assessed as liver size at 1 to 100 uM incubated for 7 dpf; assay type: toxicity, Danio rerio; details: in vivo
[7] = Toxicity in zebrafish embryo assessed as effect in brain formation at 1 to 100 uM; assay type: tissue-based, Danio rerio; details: in vivo
Rattus norvegicus [8] = test: Antiinflammatory activity in complete Freund's adjuvant-induced Wistar rat arthritis model assessed as reduction in iNOS mRNA expression at 30 mg/kg, ip administered from 11th day to 20th day by qPCR analysis; assay type: functional, organism-based
[9] = Tmax in BALB/c mouse at 10 mg/kg, iv measured for 24 hrs post dose by LC-MS/MS analysis; assay type: ADME, organism-based; details: in vivo
[10] = target: cGMP-inhibited 3',5'-cyclic phosphodiesterase 3B (Homo sapiens) (UniProt Q13370); test: Inhibition of recombinant N-terminal GST-tagged human PDE3B (592-end aa) expressed in Sf9 cells using FAM-cAMP as substrate at 10 uM incubated for 60 mins by fluorescence plate reader analysis
[11] = Toxicity in zebrafish embryo assessed as effect in swim bladder formation at 1 to 100 uM; parameters: species or system Danio rerio; details: in vivo
[12] = Toxicity in zebrafish embryo assessed as effect in heart formation at 1 to 100 uM; assay type: tissue-based, Danio rerio; details: in vivo
[13] = target: cGMP-specific 3',5'-cyclic phosphodiesterase (Homo sapiens) (UniProt O76074); test: Inhibition of recombinant N-terminal GST-tagged full length human PDE5A1 expressed in Sf9 cells using FAM-cGMP as substrate at 10 uM incubated for 60 mins by fluorescence plate reader analysis
[14] = Hepatotoxicity in zebrafish embryos assessed as liver degeneration at 1 to 100 uM incubated for 7 dpf; assay type: toxicity, Danio rerio; details: in vivo
[15] = Volume of distribution at steady state in BALB/c mouse at 10 mg/kg, iv measured for 24 hrs post dose by LC-MS/MS analysis; assay type: ADME, organism-based; details: in vivo, read-out: Vdss
Rattus norvegicus [16] = test: Analgesic activity in complete Freund's adjuvant-induced Wistar rat arthritis model assessed as increase in reaction time at 30 mg/kg, ip administered from 11th day 20th day with last dose administered 30 mins prior to test by hot-plate test; assay type: functional, organism-based
[17] = Toxicity in zebrafish embryo; parameters: species or system Danio rerio; details: in vivo
Rattus norvegicus [18] = test: Antiarthritic activity in complete Freund's adjuvant-induced Wistar rat arthritis model assessed as reduction in synovial inflammation at 30 mg/kg, ip administered from 11th day to 20th day by H&E staining based microscopic analysis; assay type: functional, organism-based
[19] = target: Dual specificity calcium/calmodulin-dependent 3',5'-cyclic nucleotide phosphodiesterase 1C (Homo sapiens) (UniProt Q14123); test: Inhibition of recombinant N-terminal GST tagged human PDE1C (2 to 634 aa) expressed in Sf9 cells at 10 uM using FAM-cAMP as substrate incubated for 60 mins by fluorescence plate reader analysis
[20] = Initial plasma concentration in BALB/c mouse at 10 mg/kg, iv measured for 24 hrs post dose by LC-MS/MS analysis; assay type: ADME, organism-based
[21] = target: Dual specificity calcium/calmodulin-dependent 3',5'-cyclic nucleotide phosphodiesterase 1B (Homo sapiens) (UniProt Q01064); test: Inhibition of recombinant N-terminal GST tagged full length human PDE1B expressed in Sf9 cells using FAM-cAMP as substrate at 10 uM incubated for 60 mins by fluorescence plate reader analysis
[22] = target: cGMP-dependent 3',5'-cyclic phosphodiesterase (Homo sapiens) (UniProt O00408); test: Inhibition of recombinant N-terminal-GST-Th-tagged full length human PDE2A1 expressed in Sf9 cells using FAM-cAMP as substrate at 10 uM incubated for 60 mins by fluorescence plate reader analysis
[23] = Cardiotoxicity in zebrafish embryos assessed as heart rate at 1 to 100 uM; assay type: toxicity, Danio rerio
[24] = target: cAMP and cAMP-inhibited cGMP 3',5'-cyclic phosphodiesterase 10A (Homo sapiens) (UniProt Q9Y233); test: Inhibition of recombinant -N-terminal GST-tagged human PDE10A1 (aa 2-789) expressed in Sf9 cells using FAM-cAMP as substrate at 10 uM incubated for 60 mins by fluorescence plate reader analysis
[25] = target: 3',5'-cyclic-AMP phosphodiesterase 4B (Homo sapiens, UniProt Q07343); test: Inhibition of human recombinant His-tagged PDE4B expressed in Sf9 cells using cAMP as substrate at 10 uM preincubated with enzyme for 15 mins followed by substrate addition and incubated for 1 hr by PDELight HTS cAMP phosphodiesterase Kit based luminometry relative to control
[26] = Toxicity in zebrafish embryo assessed as effect in notochord formation at 1 to 100 uM; parameters: species or system Danio rerio; details: in vivo
[27] = AUClast in BALB/c mouse at 10 mg/kg, iv measured for 24 hrs post dose by LC-MS/MS analysis; assay type: ADME, organism-based; parameters: dose 10 mg/kg, route intravenous, time 0 - last; details: in vivo
[28] = target: 3',5'-cyclic-AMP phosphodiesterase 7B (Homo sapiens) (UniProt Q9NP56); test: Inhibition of recombinant N-terminal GST tagged and C-terminal His-tagged human PDE7B (109-ens aa) expressed in Sf9 cells using FAM-cAMP as substrate at 10 uM incubated for 60 mins by fluorescence plate reader analysis
Rattus norvegicus [29] = test: Antiarthritic activity in complete Freund's adjuvant-induced Wistar rat arthritis model assessed as reduction in paw volume at 30 mg/kg, ip administered from 11th day to 20th day by vernier caliper analysis; assay type: functional, organism-based
[30] = Inhibition of recombinant N-terminal GST-tagged full length human PDE4A1A expressed in Sf9 cells using cAMP as substrate at 10 uM incubated for 60 mins by fluorescence plate reader analysis

Chain of Dual specificity calcium/calmodulin-dependent 3',5'-cyclic nucleotide phosphodiesterase 1B (Homo sapiens) (Q01064 whole entry): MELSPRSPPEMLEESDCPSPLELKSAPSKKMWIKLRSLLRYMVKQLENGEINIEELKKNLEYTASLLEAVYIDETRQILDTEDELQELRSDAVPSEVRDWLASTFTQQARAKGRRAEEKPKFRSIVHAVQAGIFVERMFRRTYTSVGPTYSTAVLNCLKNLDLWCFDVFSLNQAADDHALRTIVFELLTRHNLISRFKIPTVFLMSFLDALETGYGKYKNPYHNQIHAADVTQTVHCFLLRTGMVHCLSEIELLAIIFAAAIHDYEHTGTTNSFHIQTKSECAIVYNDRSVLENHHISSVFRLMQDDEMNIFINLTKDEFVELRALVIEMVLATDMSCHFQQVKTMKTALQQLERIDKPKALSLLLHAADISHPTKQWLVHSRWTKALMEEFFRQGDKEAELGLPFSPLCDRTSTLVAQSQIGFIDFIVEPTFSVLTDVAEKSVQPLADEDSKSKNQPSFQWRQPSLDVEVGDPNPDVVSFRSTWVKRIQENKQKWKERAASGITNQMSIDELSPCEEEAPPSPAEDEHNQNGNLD
Chain of cGMP-inhibited 3',5'-cyclic phosphodiesterase 3B (Homo sapiens) (Q13370 whole entry, looked up): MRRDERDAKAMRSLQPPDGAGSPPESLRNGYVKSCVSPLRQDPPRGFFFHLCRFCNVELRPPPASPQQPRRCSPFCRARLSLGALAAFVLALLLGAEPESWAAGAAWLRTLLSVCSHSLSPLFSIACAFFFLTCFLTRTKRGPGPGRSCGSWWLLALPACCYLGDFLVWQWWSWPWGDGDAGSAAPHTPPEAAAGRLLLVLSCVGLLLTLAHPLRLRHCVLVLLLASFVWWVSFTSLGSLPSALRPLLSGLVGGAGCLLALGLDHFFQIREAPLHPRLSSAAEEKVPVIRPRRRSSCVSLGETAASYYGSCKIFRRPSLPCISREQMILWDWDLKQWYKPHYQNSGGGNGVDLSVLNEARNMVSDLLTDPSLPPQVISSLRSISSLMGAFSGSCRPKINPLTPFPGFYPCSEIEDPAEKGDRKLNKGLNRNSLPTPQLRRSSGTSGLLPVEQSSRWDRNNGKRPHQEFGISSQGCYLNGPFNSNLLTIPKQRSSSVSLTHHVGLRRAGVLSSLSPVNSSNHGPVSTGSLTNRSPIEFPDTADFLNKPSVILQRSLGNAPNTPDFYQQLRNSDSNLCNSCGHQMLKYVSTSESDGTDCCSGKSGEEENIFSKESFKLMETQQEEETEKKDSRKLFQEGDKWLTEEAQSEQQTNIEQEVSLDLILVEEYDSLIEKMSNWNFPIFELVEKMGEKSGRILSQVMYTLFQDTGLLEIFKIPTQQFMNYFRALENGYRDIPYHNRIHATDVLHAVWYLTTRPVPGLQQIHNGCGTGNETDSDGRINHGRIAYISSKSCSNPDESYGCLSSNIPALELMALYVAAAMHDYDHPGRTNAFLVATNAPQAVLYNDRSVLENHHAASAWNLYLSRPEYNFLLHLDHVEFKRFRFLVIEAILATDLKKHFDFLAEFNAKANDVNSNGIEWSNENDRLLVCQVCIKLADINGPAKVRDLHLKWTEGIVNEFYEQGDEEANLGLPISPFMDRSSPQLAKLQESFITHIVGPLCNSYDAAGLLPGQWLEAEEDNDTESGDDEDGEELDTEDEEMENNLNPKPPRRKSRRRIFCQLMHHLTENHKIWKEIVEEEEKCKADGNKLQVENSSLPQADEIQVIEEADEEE
Chain of cAMP and cAMP-inhibited cGMP 3',5'-cyclic phosphodiesterase 10A (Homo sapiens) (Q9Y233 whole entry, the tested form may be a part): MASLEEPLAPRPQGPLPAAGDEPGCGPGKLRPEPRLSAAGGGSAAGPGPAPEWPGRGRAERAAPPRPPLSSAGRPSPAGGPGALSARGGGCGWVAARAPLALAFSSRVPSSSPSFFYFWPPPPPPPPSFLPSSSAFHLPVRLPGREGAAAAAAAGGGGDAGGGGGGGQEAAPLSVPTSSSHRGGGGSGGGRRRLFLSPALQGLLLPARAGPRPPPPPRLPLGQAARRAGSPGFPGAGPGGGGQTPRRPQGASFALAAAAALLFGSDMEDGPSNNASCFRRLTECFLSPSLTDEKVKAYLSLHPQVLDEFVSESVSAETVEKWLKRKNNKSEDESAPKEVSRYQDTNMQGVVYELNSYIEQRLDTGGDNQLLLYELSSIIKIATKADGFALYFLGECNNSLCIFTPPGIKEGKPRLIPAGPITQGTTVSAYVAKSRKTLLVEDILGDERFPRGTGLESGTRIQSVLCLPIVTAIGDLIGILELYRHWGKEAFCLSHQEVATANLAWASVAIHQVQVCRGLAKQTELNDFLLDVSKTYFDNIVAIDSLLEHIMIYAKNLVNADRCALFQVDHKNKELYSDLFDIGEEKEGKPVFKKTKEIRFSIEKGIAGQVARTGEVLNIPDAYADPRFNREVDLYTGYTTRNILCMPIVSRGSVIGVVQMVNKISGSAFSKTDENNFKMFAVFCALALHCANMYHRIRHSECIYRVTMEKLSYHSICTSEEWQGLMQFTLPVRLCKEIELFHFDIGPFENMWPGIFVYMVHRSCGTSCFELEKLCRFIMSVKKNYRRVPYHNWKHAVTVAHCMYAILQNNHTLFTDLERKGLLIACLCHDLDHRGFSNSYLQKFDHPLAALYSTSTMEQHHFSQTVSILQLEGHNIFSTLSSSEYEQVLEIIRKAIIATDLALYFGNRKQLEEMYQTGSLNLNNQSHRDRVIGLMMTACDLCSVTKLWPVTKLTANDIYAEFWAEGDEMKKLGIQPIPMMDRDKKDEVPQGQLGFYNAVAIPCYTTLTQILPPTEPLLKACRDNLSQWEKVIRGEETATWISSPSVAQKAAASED
Chain of Dual specificity calcium/calmodulin-dependent 3',5'-cyclic nucleotide phosphodiesterase 1C (Homo sapiens) (Q14123 whole entry, the tested form may be a part): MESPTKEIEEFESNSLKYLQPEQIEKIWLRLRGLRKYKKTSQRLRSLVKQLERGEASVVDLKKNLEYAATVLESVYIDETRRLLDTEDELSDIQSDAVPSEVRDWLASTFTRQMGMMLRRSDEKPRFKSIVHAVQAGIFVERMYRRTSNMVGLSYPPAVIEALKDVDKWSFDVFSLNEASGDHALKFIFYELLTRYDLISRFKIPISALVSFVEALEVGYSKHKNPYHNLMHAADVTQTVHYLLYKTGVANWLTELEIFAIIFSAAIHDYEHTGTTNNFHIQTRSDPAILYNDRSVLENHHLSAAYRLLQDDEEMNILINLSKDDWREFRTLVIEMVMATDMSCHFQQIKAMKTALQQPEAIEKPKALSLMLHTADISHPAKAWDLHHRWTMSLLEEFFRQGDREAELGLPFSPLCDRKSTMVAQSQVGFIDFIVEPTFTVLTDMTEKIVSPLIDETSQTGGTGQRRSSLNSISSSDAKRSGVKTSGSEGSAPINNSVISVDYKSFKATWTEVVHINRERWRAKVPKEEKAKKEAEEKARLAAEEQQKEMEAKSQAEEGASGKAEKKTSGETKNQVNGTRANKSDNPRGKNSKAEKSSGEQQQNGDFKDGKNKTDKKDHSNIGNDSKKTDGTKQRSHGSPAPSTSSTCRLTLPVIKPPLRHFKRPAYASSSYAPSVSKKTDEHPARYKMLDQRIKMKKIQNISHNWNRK
Chain of 3',5'-cyclic-AMP phosphodiesterase 4B (Q07343 whole entry): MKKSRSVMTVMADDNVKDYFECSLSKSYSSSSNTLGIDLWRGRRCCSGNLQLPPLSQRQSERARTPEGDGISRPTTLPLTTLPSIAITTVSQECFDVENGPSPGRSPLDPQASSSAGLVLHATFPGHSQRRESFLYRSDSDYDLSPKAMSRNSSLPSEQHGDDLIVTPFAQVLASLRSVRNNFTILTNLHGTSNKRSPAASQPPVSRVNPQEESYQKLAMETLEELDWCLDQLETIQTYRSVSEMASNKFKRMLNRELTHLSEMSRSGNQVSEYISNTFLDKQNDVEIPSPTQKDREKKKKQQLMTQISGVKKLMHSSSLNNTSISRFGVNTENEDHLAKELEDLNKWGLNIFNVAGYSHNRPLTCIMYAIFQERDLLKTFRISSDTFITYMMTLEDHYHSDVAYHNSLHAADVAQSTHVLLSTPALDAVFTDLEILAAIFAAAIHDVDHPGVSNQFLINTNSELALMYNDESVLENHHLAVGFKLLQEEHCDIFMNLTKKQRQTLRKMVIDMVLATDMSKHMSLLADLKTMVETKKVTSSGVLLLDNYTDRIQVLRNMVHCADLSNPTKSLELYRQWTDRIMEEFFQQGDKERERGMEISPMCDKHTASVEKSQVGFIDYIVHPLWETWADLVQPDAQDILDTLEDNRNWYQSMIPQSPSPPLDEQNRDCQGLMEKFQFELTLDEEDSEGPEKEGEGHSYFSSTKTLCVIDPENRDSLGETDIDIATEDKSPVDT
Chain of 3',5'-cyclic-AMP phosphodiesterase 7B (Homo sapiens) (Q9NP56 whole entry): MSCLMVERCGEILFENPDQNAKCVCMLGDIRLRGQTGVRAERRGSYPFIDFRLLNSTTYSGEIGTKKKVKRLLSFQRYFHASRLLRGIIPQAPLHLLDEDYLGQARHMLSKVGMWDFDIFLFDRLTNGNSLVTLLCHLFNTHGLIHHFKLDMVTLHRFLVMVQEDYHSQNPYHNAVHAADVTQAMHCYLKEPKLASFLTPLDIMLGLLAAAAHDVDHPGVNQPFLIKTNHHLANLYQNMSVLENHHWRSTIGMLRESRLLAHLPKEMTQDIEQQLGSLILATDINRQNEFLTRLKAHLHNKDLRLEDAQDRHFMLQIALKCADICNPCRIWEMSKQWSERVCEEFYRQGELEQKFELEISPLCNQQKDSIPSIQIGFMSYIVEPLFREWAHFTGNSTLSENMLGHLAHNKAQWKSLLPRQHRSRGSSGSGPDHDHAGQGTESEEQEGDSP

- inhibition [1]: 3%
- half-life at 5 µM [3]: 52.5 min
- inhibition [5]: 36%
- Tmax [9]: 4.8 min
- inhibition [10]: 1%
- inhibition [13]: 2%
- Vd [15]: 4.46 L/kg
- inhibition [19]: 39%
- C0 at 24 h [20]: 5060 ng/mL
- inhibition [21]: 23%
- inhibition [22]: 3%
- inhibition [24]: 13%
- inhibition [25]: > 75%
- AUC(0-t) at 24 h [27]: 1090 ng·h/mL
- inhibition [28]: 2%
Structure (SMILES): C=CCn1cc(-c2nc3ccccc3nc2Cl)c2cc(OC)ccc21
- inhibition (Rattus norvegicus [2]): Active
- Activity (Danio rerio): Active
- inhibition (RAW264.7): Active
- Activity [4]: Toxic
- Activity [6]: Non-Toxic
- Activity [7]: Non-Toxic
- inhibition (Rattus norvegicus [8]): Active
- Activity [11]: Non-Toxic
- Activity [12]: Non-Toxic
- Activity [14]: Non-Toxic
- Activity (Rattus norvegicus [16]): Active
- NOAEL [17]: 30 µM
- inhibition (Rattus norvegicus [18]): Active
- Activity [23]: Non-Toxic
- Activity [26]: Toxic
- inhibition (Rattus norvegicus [29]): Active
- inhibition [30]: 40%

Reference: ChEMBL document CHEMBL4393686, “InCl3 mediated heteroarylation of indoles and their derivatization via CH activation strategy: Discovery of 2-(1H-indol-3-yl)-quinoxaline derivatives as a new class of PDE4B selective inhibitors for arthritis and/or multiple sclerosis” (Eur J Med Chem, 2019)
